Test results from patent US20260242365A1, “USES OF CERTAIN 1,4-OXAZEPANE-2-CARBOXAMIDES AS DPP1 INHIBITORS” (Insmed Incorporated, priority 2023, published 2026).

Target: T1, mouse DPP1 (Mus musculus, UniProt P97821)
T1 construct: Test articles were applied to active mouse DPP1 enzyme; purchased R&D Systems
Test: Mouse DPP1 Enzyme IC50 Assay
Type: biochemical
Conditions: active mouse DPP1 enzyme, H-Gly-Arg-AMC substrate
Protocol: Test articles were applied to active mouse DPP1 enzyme (R&D Systems; Minneapolis, MN) in Assay Buffer (50 mM MES pH 5.5, 50 mM NaCl, 5 mM DTT) in a total reaction volume of 125 μL. 25 μL of compound in Assay Buffer plus 5% DMSO was first added to 50 μL of active mouse DPP1 enzyme at a concentration of […] and allowed to pre-incubate for 10 minutes at 37° C. after which 50 μL of 1000 μM H-Gly-Arg-AMC substrate (Bachem; St. Torrance, CA) was added, giving final substrate concentration of 400 μM and a final DMSO concentration of 1%. Substrate cleavage was measured for 90 minutes at 37° C., with fluorescence at Excitation/Emission 350/450 nm measured every 5 minutes. DPP1 concentration was interpolated based on its activity relative to a standard curve of recombinant active mouse DPP1 enzyme. IC50 values for each compound were calculated via the XLFit (IDBS Version 5.3.1.3) Add-On to Microsoft Excel using the four parameter fit equation y= (A+ ((B−A)/(1+ ((C/x)^D)))), which appears as equation number 205 (4 Parameter Logistic Model or Sigmoidal Dose-Response Model) in XLFit. Default constraints were used for each Parameter. IC50 was defined as the compound concentration at which 50% of enzyme activity was inhibited when compared to the no-compound control.

T1 sequence (P97821 25-134 limits assumed): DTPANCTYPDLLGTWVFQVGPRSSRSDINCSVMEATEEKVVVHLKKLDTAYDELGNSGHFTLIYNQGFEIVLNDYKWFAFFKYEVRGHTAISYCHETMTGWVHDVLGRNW
T1 sequence (P97821 231-393 limits assumed): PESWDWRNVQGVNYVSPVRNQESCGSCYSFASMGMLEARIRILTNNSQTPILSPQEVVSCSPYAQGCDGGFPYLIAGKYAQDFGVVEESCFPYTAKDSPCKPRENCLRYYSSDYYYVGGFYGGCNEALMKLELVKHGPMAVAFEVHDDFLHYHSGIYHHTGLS
T1 sequence (P97821 394-462 limits assumed): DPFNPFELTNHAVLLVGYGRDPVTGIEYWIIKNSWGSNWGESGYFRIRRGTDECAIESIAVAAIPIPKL

IC50: 5.6 ± 0.4 nM
SMILES: Cn1c(=O)oc2ccc(-c3ccc(C[C@@H](C#N)NC(=O)[C@@H]4CNCCCO4)c(F)c3)cc21 [INSM-204]
